Source: the supplement of paper PMC4862054

How the values were obtained:
Details in all cases: incubation time: 72 h
MDA-MB-468 [1] = test: normalised response (% of control), CellTox Green; higher = less cell death (100 = DMSO, 0 = benzethonium chloride kill control)
Summary of the method: (§1)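 Values are normalised signals, each belonging to one concentration of the series. Breast cancer cells (20 µl suspension) were seeded into 384-well plates with compound at 5 concentrations in 10-fold steps over a compound-specific 10,000-fold range and incubated 72 h. Readouts were CellTox Green fluorescence (485/520 nm), then CellTiter-Glo luminescence after 10 min at room temperature, with each plate set to 0.1 % DMSO as 100 and a positive kill control as 0.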

MDA-MB-453 [2] = test: as above
Summary of the method: as §1

MDA-MB-436 [3] = test: as above
Summary of the method: as §1

CAL-120 [4] = test: as above
Summary of the method: as §1

MCF-10A [5] = test: as above
Summary of the method: as §1

DU-4475 [6] = test: as above
Summary of the method: as §1

HCC1599 [7] = test: as above
Summary of the method: as §1

BT-549 [8] = test: as above
Summary of the method: as §1

HDQ-P1 [9] = test: as above
Summary of the method: as §1

MDA-MB-231 [10] = test: as above
Summary of the method: as §1

HCC1937 [11] = test: as above
Summary of the method: as §1

CAL-85-1 [12] = test: as above
Summary of the method: as §1

Hs578T [13] = test: as above
Summary of the method: as §1

BT-474 [14] = test: as above
Summary of the method: as §1

CAL-51 [15] = test: as above
Summary of the method: as §1

CAL-148 [16] = test: as above
Summary of the method: as §1

MDA-MB-468 [17] = test: normalised response (% of control), CellTiter-Glo; higher = more viable cells (100 = DMSO, 0 = benzethonium chloride kill control)
Summary of the method: as §1

MDA-MB-453 [18] = test: as above
Summary of the method: as §1

MDA-MB-436 [19] = test: as above
Summary of the method: as §1

CAL-120 [20] = test: as above
Summary of the method: as §1

MCF-10A [21] = test: as above
Summary of the method: as §1

SK-BR-3 = test: as above
Summary of the method: as §1

DU-4475 [22] = test: as above
Summary of the method: as §1

HCC1599 [23] = test: as above
Summary of the method: as §1

HCC1143 = test: as above
Summary of the method: as §1

BT-549 [24] = test: as above
Summary of the method: as §1

HDQ-P1 [25] = test: as above
Summary of the method: as §1

MDA-MB-231 [26] = test: as above
Summary of the method: as §1

HCC1937 [27] = test: as above
Summary of the method: as §1

CAL-85-1 [28] = test: as above
Summary of the method: as §1

Hs578T [29] = test: as above
Summary of the method: as §1

MFM-223 = test: as above
Summary of the method: as §1

BT-474 [30] = test: as above
Summary of the method: as §1

CAL-51 [31] = test: as above
Summary of the method: as §1

CAL-148 [32] = test: as above
Summary of the method: as §1

Compound | normalised response (MDA-MB-468 [1]) [%] | normalised response (MDA-MB-453 [2]) [%] | normalised response (MDA-MB-436 [3]) [%] | normalised response (CAL-120 [4]) [%] | normalised response (MCF-10A [5]) [%] | normalised response (DU-4475 [6]) [%] | normalised response (HCC1599 [7]) [%] | normalised response (BT-549 [8]) [%] | normalised response (HDQ-P1 [9]) [%] | normalised response (MDA-MB-231 [10]) [%] | normalised response (HCC1937 [11]) [%] | normalised response (CAL-85-1 [12]) [%] | normalised response (Hs578T [13]) [%] | normalised response (BT-474 [14]) [%] | normalised response (CAL-51 [15]) [%] | normalised response (CAL-148 [16]) [%] | normalised response (MDA-MB-468 [17]) [%] | normalised response (MDA-MB-453 [18]) [%] | normalised response (MDA-MB-436 [19]) [%] | normalised response (CAL-120 [20]) [%] | normalised response (MCF-10A [21]) [%] | normalised response (SK-BR-3) [%] | normalised response (DU-4475 [22]) [%] | normalised response (HCC1599 [23]) [%] | normalised response (HCC1143) [%] | normalised response (BT-549 [24]) [%] | normalised response (HDQ-P1 [25]) [%] | normalised response (MDA-MB-231 [26]) [%] | normalised response (HCC1937 [27]) [%] | normalised response (CAL-85-1 [28]) [%] | normalised response (Hs578T [29]) [%] | normalised response (MFM-223) [%] | normalised response (BT-474 [30]) [%] | normalised response (CAL-51 [31]) [%] | normalised response (CAL-148 [32]) [%]
CNC(=O)c1ccc(N2C(=S)N(c3ccc(C#N)c(C(F)(F)F)c3)C(=O)C23CCC3)cc1F [RD162] (1000 nM) | 96.5 | 90.8 | 111 | 101 | 120 | 104 | 96 | 101 | 114 | 108 | 83.1 | 118 | 85.7 | 96.8 | 107 | 102 | 97.3 | 98.9 | 98.2 | 99 | 102 | 110 | 103 | 126 | 98 | 93.7 | 94.9 | 101 | 94.6 | 96.7 | 104 | 102 | 95.3 | 115 | 103
O=C(Nc1cccnc1)N1CCC(Cc2cccc(Oc3ccc(C(F)(F)F)cn3)c2)CC1 [PF-3845] (10 nM) | – | – | – | – | – | – | – | – | – | – | – | – | – | – | – | – | 101 | 106 | 100 | 105 | 115 | 96.7 | 105 | 96.9 | 106 | 96.7 | 97.3 | 109 | 103 | 103 | 108 | 119 | 110 | 88.9 | 112
CC(C)C[C@@H](C(=O)N[C@H](C(=O)OC1CCCC1)c1ccccc1)[C@H](O)C(=O)NO [Tosedostat] (10 nM) | – | – | – | – | – | – | – | – | – | – | – | – | – | – | – | – | 78.5 | 93.9 | 96.1 | 92.6 | 102 | 113 | 99.5 | 114 | 97.2 | 88.2 | 99.8 | 94.4 | 87.9 | 92.2 | 94.4 | 104 | 95.3 | 125 | 111
CO[C@H]1C[C@@H]2CC[C@@H](C)[C@@](O)(O2)C(=O)C(=O)N2CCCC[C@H]2C(=O)O[C@H]([C@H](C)C[C@@H]2CC[C@@H](OP(C)(C)=O)[C@H](OC)C2)CC(=O)[C@H](C)/C=C(\C)[C@@H](O)[C@@H](OC)C(=O)[C@H](C)C[C@H](C)/C=C/C=C/C=C/1C [Ridaforolimus] (0.01 nM) | – | – | – | – | – | – | – | – | – | – | – | – | – | – | – | – | 102 | 109 | 103 | 103 | 104 | 111 | 103 | 113 | 102 | 101 | 109 | 103 | 99.6 | 99.8 | 96.8 | 105 | 107 | 109 | 105
COCC[n+]1c2c(n(Cc3cnccn3)c1C)C(=O)c1ccccc1C2=O [YM155] (10 nM) | – | – | – | – | – | – | – | – | – | – | – | – | – | – | – | – | 11.8 | 66.2 | 26.6 | 7.43 | 88.1 | 69.8 | 101 | 43.3 | 56.4 | 91.5 | 79.8 | 37.6 | 55.7 | 31.8 | 95.2 | 75.3 | 25.6 | 77.8 | 85
CNC(=O)c1ccc(N2C(=S)N(c3ccc(C#N)c(C(F)(F)F)c3)C(=O)C23CCC3)cc1F [RD162] (10 nM) | – | – | – | – | – | – | – | – | – | – | – | – | – | – | – | – | 105 | 104 | 93.7 | 95.5 | 105 | 94.4 | 102 | 99.3 | 105 | 93.8 | 96.3 | 98.2 | 97 | 101 | 95.3 | 102 | 103 | 102 | 107
NC(=O)c1ccc(I)c([N+](=O)[O-])c1 [Iniparib] (10 nM) | – | – | – | – | – | – | – | – | – | – | – | – | – | – | – | – | 90.7 | 77.9 | 87.2 | 91.9 | 81.3 | 74.1 | 93.5 | 94.2 | 90 | 94.2 | 89.2 | 92.6 | 95.4 | 90.6 | 92.8 | 84.2 | 91.2 | 85.4 | 83.2
CN(C)CCOc1ccc(/C(=C(/CCCl)c2ccccc2)c2ccccc2)cc1 [Toremifene] (10 nM) | – | – | – | – | – | – | – | – | – | – | – | – | – | – | – | – | 103 | 120 | 97.1 | 105 | 105 | 117 | 108 | 91.3 | 98.2 | 99 | 99.2 | 96.8 | 98.6 | 95.1 | 103 | 106 | 101 | 130 | 109
COc1cc2/c(=N/c3ccc(Br)cc3F)nc[nH]c2cc1OCC1CCN(C)CC1 [Vandetanib] (0.1 nM) | – | – | – | – | – | – | – | – | – | – | – | – | – | – | – | – | 93.2 | 93.6 | 80.6 | 90.8 | 72.8 | 78 | 91 | 82.4 | 88.7 | 105 | 93.2 | 97.3 | 88.2 | 90.3 | 98.6 | 85.2 | 89.3 | 115 | 76.8
COc1cc(O)c2c(c1)/C=C/C[C@H](O)[C@H](O)C(=O)/C=C\C[C@H](C)OC2=O [(5Z)-7-Oxozeaenol] (10 nM) | – | – | – | – | – | – | – | – | – | – | – | – | – | – | – | – | 100 | 93 | 99 | 94.9 | 112 | 107 | 102 | 121 | 108 | 103 | 96.9 | 109 | 106 | 96.4 | 104 | 107 | 106 | 107 | 106
CCn1c(-c2nonc2N)nc2cnc(Oc3cccc(NC(=O)c4ccc(OCCN5CCOCC5)cc4)c3)cc21 (10 nM) | – | – | – | – | – | – | – | – | – | – | – | – | – | – | – | – | 94.3 | 91.3 | 95 | 92.4 | 89 | 117 | 94.2 | 104 | 101 | 97.3 | 103 | 99.8 | 104 | 102 | 104 | 106 | 93.3 | 121 | 94.9
N#Cc1ccc(COC[C@H]2O[C@@H](n3c(NCc4ccc(Cl)c(Cl)c4)nc4c(N)ncnc43)[C@H](O)[C@@H]2O)cc1 (10 nM) | – | – | – | – | – | – | – | – | – | – | – | – | – | – | – | – | 101 | 106 | 108 | 97.2 | 101 | 132 | 106 | 92.3 | 107 | 103 | 97.5 | 106 | 98.7 | 98.1 | 101 | 113 | 107 | 76.3 | 115
COc1cc2ncnc(Nc3ccc(F)c(Cl)c3)c2cc1OCCCN1CCOCC1 [Gefitinib] (10 nM) | – | – | – | – | – | – | – | – | – | – | – | – | – | – | – | – | 95.9 | 108 | 103 | 96.2 | 95.6 | 107 | 100 | 89.5 | 98.1 | 98.6 | 97 | 98 | 98.3 | 96.6 | 103 | 108 | 100 | 103 | 105
